Reference: PubChem BioAssay (NCI)
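GI50 = concentration required for 50% inhibition of growth. At the TGI there is no net growth.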

Tests used:
Assay in all cases: growth of human tumour cells (NCI), 384-well format
HT29 colon = tested on: HT29 colon
MCF7 breast = tested on: MCF7 breast
HOP-92 NSCLC = tested on: HOP-92 NSCLC
SNB-19 CNS = tested on: SNB-19 CNS
SR leukemia = tested on: SR leukemia
NCI/ADR-RES ovarian = tested on: NCI/ADR-RES ovarian
NCI-H460 NSCLC = tested on: NCI-H460 NSCLC
UACC-257 melanoma = tested on: UACC-257 melanoma
SN12C renal = tested on: SN12C renal
RPMI-8226 leukemia = tested on: RPMI-8226 leukemia
SW-620 colon = tested on: SW-620 colon
TK-10 renal = tested on: TK-10 renal
NCI-H522 lung = tested on: NCI-H522 lung
COLO 205 colon = tested on: COLO 205 colon
CAKI-1 renal = tested on: CAKI-1 renal
MALME-3M melanoma = tested on: MALME-3M melanoma
NCI-H226 lung = tested on: NCI-H226 lung
A498 renal = tested on: A498 renal
OVCAR-5 ovarian = tested on: OVCAR-5 ovarian
OVCAR-4 ovarian = tested on: OVCAR-4 ovarian
A549 NSCLC = tested on: A549 NSCLC
HCT-116 colon = tested on: HCT-116 colon
U251 glioblastoma = tested on: U251 glioblastoma
NCI-H23 lung = tested on: NCI-H23 lung
EKVX NSCLC = tested on: EKVX NSCLC
PC-3 prostate = tested on: PC-3 prostate
HS 578T breast = tested on: HS 578T breast
MDA-MB-468 breast = tested on: MDA-MB-468 breast
LOX IMVI melanoma = tested on: LOX IMVI melanoma
MDA-MB-231 breast = tested on: MDA-MB-231 breast
SF-539 CNS = tested on: SF-539 CNS
HCT-15 colon = tested on: HCT-15 colon
HCC-2998 colon = tested on: HCC-2998 colon
IGROV1 ovarian = tested on: IGROV1 ovarian
BT-549 breast = tested on: BT-549 breast
KM12 colon = tested on: KM12 colon
SK-OV-3 ovarian = tested on: SK-OV-3 ovarian
SF-295 CNS = tested on: SF-295 CNS
MOLT-4 leukemia = tested on: MOLT-4 leukemia
T-47D breast = tested on: T-47D breast
NCI-H322M lung = tested on: NCI-H322M lung
ACHN renal = tested on: ACHN renal
UO-31 renal = tested on: UO-31 renal
RXF 393 renal = tested on: RXF 393 renal
HOP-62 NSCLC = tested on: HOP-62 NSCLC
SK-MEL-28 melanoma = tested on: SK-MEL-28 melanoma
MDA-MB-435 melanoma = tested on: MDA-MB-435 melanoma
DU-145 prostate = tested on: DU-145 prostate
OVCAR-8 ovarian = tested on: OVCAR-8 ovarian
786-0 renal = tested on: 786-0 renal

**Q.** How did the GI50 (HT29 colon) turn out when `CNC(=O)c1ccccc1Sc1ccc2c(/C=C/c3ccccn3)n[nH]c2c1` was run?
**A.** 46.5 µM

**Q.** What about the TGI (HT29 colon) of the same molecule?
**A.** > 100 µM

**Q.** And the GI50 (MCF7 breast)?
**A.** 16.2 µM

**Q.** And the TGI (MCF7 breast)?
**A.** > 100 µM

**Q.** What about the GI50 (HOP-92 NSCLC) of the same molecule?
**A.** 20.3 µM

**Q.** What about the TGI (HOP-92 NSCLC) of the same molecule?
**A.** > 100 µM

**Q.** What about the GI50 (SNB-19 CNS) of the same molecule?
**A.** 66 µM

**Q.** What about the TGI (SNB-19 CNS) of the same molecule?
**A.** > 100 µM

**Q.** What about the GI50 (SR leukemia) of the same molecule?
**A.** 0.356 µM

**Q.** What about the TGI (SR leukemia) of the same molecule?
**A.** 0.539 µM

**Q.** What about the GI50 (NCI/ADR-RES ovarian) of the same molecule?
**A.** 5.09 µM

**Q.** And the TGI (NCI/ADR-RES ovarian)?
**A.** 18.4 µM

**Q.** What about the GI50 (NCI-H460 NSCLC) of the same molecule?
**A.** 2.59 µM

**Q.** And the TGI (NCI-H460 NSCLC)?
**A.** 45 µM

**Q.** What about the GI50 (UACC-257 melanoma) of the same molecule?
**A.** 26.7 µM

**Q.** And the TGI (UACC-257 melanoma)?
**A.** 92.2 µM

**Q.** What about the GI50 (SN12C renal) of the same molecule?
**A.** 4.88 µM

**Q.** And the TGI (SN12C renal)?
**A.** 79.7 µM

**Q.** And the GI50 (RPMI-8226 leukemia)?
**A.** 3.77 µM

**Q.** What about the TGI (RPMI-8226 leukemia) of the same molecule?
**A.** 13.9 µM

**Q.** What about the GI50 (SW-620 colon) of the same molecule?
**A.** 46.7 µM

**Q.** What about the TGI (SW-620 colon) of the same molecule?
**A.** > 100 µM

**Q.** What about the GI50 (TK-10 renal) of the same molecule?
**A.** > 100 µM

**Q.** What about the TGI (TK-10 renal) of the same molecule?
**A.** > 100 µM

**Q.** And the GI50 (NCI-H522 lung)?
**A.** 1.35 µM

**Q.** What about the TGI (NCI-H522 lung) of the same molecule?
**A.** 13.8 µM

**Q.** What about the GI50 (COLO 205 colon) of the same molecule?
**A.** 2.52 µM

**Q.** And the TGI (COLO 205 colon)?
**A.** > 100 µM

**Q.** And the GI50 (CAKI-1 renal)?
**A.** 22 µM

**Q.** And the TGI (CAKI-1 renal)?
**A.** > 100 µM

**Q.** What about the GI50 (MALME-3M melanoma) of the same molecule?
**A.** 13.6 µM

**Q.** And the TGI (MALME-3M melanoma)?
**A.** 85.9 µM

**Q.** What about the GI50 (NCI-H226 lung) of the same molecule?
**A.** 1.06 µM

**Q.** And the TGI (NCI-H226 lung)?
**A.** 7.68 µM

**Q.** What about the GI50 (A498 renal) of the same molecule?
**A.** 35.4 µM

**Q.** And the TGI (A498 renal)?
**A.** > 100 µM

**Q.** What about the GI50 (OVCAR-5 ovarian) of the same molecule?
**A.** > 100 µM

**Q.** And the TGI (OVCAR-5 ovarian)?
**A.** > 100 µM

**Q.** And the GI50 (OVCAR-4 ovarian)?
**A.** 19.3 µM

**Q.** What about the TGI (OVCAR-4 ovarian) of the same molecule?
**A.** > 100 µM

**Q.** And the GI50 (A549 NSCLC)?
**A.** 7.86 µM

**Q.** What about the TGI (A549 NSCLC) of the same molecule?
**A.** > 100 µM

**Q.** What about the GI50 (HCT-116 colon) of the same molecule?
**A.** 4.39 µM

**Q.** What about the TGI (HCT-116 colon) of the same molecule?
**A.** > 100 µM

**Q.** And the GI50 (U251 glioblastoma)?
**A.** 19.1 µM

**Q.** What about the TGI (U251 glioblastoma) of the same molecule?
**A.** > 100 µM

**Q.** And the GI50 (NCI-H23 lung)?
**A.** 15.5 µM

**Q.** And the TGI (NCI-H23 lung)?
**A.** > 100 µM

**Q.** What about the GI50 (EKVX NSCLC) of the same molecule?
**A.** 29.9 µM

**Q.** And the TGI (EKVX NSCLC)?
**A.** > 100 µM

**Q.** And the GI50 (PC-3 prostate)?
**A.** 20.2 µM

**Q.** And the TGI (PC-3 prostate)?
**A.** > 100 µM

**Q.** And the GI50 (HS 578T breast)?
**A.** 2.17 µM

**Q.** And the TGI (HS 578T breast)?
**A.** 35.7 µM

**Q.** What about the GI50 (MDA-MB-468 breast) of the same molecule?
**A.** 1.92 µM

**Q.** What about the TGI (MDA-MB-468 breast) of the same molecule?
**A.** 5.88 µM

**Q.** And the GI50 (LOX IMVI melanoma)?
**A.** 5.04 µM

**Q.** And the TGI (LOX IMVI melanoma)?
**A.** 41.7 µM

**Q.** What about the GI50 (MDA-MB-231 breast) of the same molecule?
**A.** 21.7 µM

**Q.** What about the TGI (MDA-MB-231 breast) of the same molecule?
**A.** > 100 µM

**Q.** What about the GI50 (SF-539 CNS) of the same molecule?
**A.** 1.01 µM

**Q.** What about the TGI (SF-539 CNS) of the same molecule?
**A.** 7.16 µM

**Q.** What about the GI50 (HCT-15 colon) of the same molecule?
**A.** 4.68 µM

**Q.** And the TGI (HCT-15 colon)?
**A.** > 100 µM

**Q.** And the GI50 (HCC-2998 colon)?
**A.** > 100 µM

**Q.** What about the TGI (HCC-2998 colon) of the same molecule?
**A.** > 100 µM

**Q.** And the GI50 (IGROV1 ovarian)?
**A.** 36.1 µM

**Q.** And the TGI (IGROV1 ovarian)?
**A.** > 100 µM

**Q.** What about the GI50 (BT-549 breast) of the same molecule?
**A.** 1.22 µM

**Q.** And the TGI (BT-549 breast)?
**A.** 6.94 µM

**Q.** What about the GI50 (KM12 colon) of the same molecule?
**A.** 1.11 µM

**Q.** What about the TGI (KM12 colon) of the same molecule?
**A.** > 100 µM

**Q.** And the GI50 (SK-OV-3 ovarian)?
**A.** 65.7 µM

**Q.** What about the TGI (SK-OV-3 ovarian) of the same molecule?
**A.** > 100 µM

**Q.** And the GI50 (SF-295 CNS)?
**A.** 3.59 µM

**Q.** What about the TGI (SF-295 CNS) of the same molecule?
**A.** 69 µM

**Q.** And the GI50 (MOLT-4 leukemia)?
**A.** 0.175 µM

**Q.** What about the TGI (MOLT-4 leukemia) of the same molecule?
**A.** 0.328 µM

**Q.** What about the GI50 (T-47D breast) of the same molecule?
**A.** 2.57 µM

**Q.** What about the TGI (T-47D breast) of the same molecule?
**A.** 16.1 µM

**Q.** What about the GI50 (NCI-H322M lung) of the same molecule?
**A.** 20.7 µM

**Q.** And the TGI (NCI-H322M lung)?
**A.** 73.7 µM

**Q.** And the GI50 (ACHN renal)?
**A.** 13.8 µM

**Q.** And the TGI (ACHN renal)?
**A.** > 100 µM

**Q.** What about the GI50 (UO-31 renal) of the same molecule?
**A.** 32.8 µM

**Q.** And the TGI (UO-31 renal)?
**A.** > 100 µM

**Q.** And the GI50 (RXF 393 renal)?
**A.** 4.61 µM

**Q.** And the TGI (RXF 393 renal)?
**A.** 31.1 µM

**Q.** What about the GI50 (HOP-62 NSCLC) of the same molecule?
**A.** 4.4 µM

**Q.** And the TGI (HOP-62 NSCLC)?
**A.** > 100 µM

**Q.** What about the GI50 (SK-MEL-28 melanoma) of the same molecule?
**A.** 22.4 µM

**Q.** What about the TGI (SK-MEL-28 melanoma) of the same molecule?
**A.** > 100 µM

**Q.** And the GI50 (MDA-MB-435 melanoma)?
**A.** > 100 µM

**Q.** What about the TGI (MDA-MB-435 melanoma) of the same molecule?
**A.** > 100 µM

**Q.** And the GI50 (DU-145 prostate)?
**A.** 30.1 µM

**Q.** And the TGI (DU-145 prostate)?
**A.** > 100 µM

**Q.** And the GI50 (OVCAR-8 ovarian)?
**A.** 14.3 µM

**Q.** And the TGI (OVCAR-8 ovarian)?
**A.** 42.5 µM

**Q.** And the GI50 (786-0 renal)?
**A.** 42.1 µM

**Q.** What about the TGI (786-0 renal) of the same molecule?
**A.** > 100 µM
